Laboratory results reported in PubChem BioAssay (NCI).
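Each compound was tested at five concentrations against cells in 96-well plates for 48 hours. TGI: total growth inhibition.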

Key:
Assay in all cases: NCI anticancer screen, dose series, 48 h
IGROV1 ovarian = tested on: IGROV1 ovarian
SF-539 CNS = tested on: SF-539 CNS
T-47D breast = tested on: T-47D breast
OVCAR-5 ovarian = tested on: OVCAR-5 ovarian
SK-MEL-5 melanoma = tested on: SK-MEL-5 melanoma
SK-OV-3 ovarian = tested on: SK-OV-3 ovarian
SK-MEL-28 melanoma = tested on: SK-MEL-28 melanoma
HS 578T breast = tested on: HS 578T breast
COLO 205 colon = tested on: COLO 205 colon
SF-295 CNS = tested on: SF-295 CNS
MDA-MB-435 = tested on: MDA-MB-435
HCC-2998 colon = tested on: HCC-2998 colon
DU-145 prostate = tested on: DU-145 prostate
BT-549 breast = tested on: BT-549 breast
PC-3 prostate = tested on: PC-3 prostate
HOP-62 NSCLC = tested on: HOP-62 NSCLC
SR leukemia = tested on: SR leukemia
MCF7 breast = tested on: MCF7 breast
CCRF-CEM leukemia = tested on: CCRF-CEM leukemia
MDA-MB-231 breast = tested on: MDA-MB-231 breast
NCI-H522 lung = tested on: NCI-H522 lung
RXF 393 renal = tested on: RXF 393 renal
NCI-H460 lung = tested on: NCI-H460 lung
SK-MEL-2 melanoma = tested on: SK-MEL-2 melanoma
HOP-92 NSCLC = tested on: HOP-92 NSCLC
SNB-19 CNS = tested on: SNB-19 CNS
HCT-15 colon = tested on: HCT-15 colon
RPMI-8226 leukemia = tested on: RPMI-8226 leukemia
786-0 renal = tested on: 786-0 renal
HL-60(TB) leukemia = tested on: HL-60(TB) leukemia
M14 melanoma = tested on: M14 melanoma
UO-31 renal = tested on: UO-31 renal
ACHN renal = tested on: ACHN renal
SNB-75 CNS = tested on: SNB-75 CNS
EKVX NSCLC = tested on: EKVX NSCLC
LOX IMVI melanoma = tested on: LOX IMVI melanoma
MALME-3M melanoma = tested on: MALME-3M melanoma
U251 CNS = tested on: U251 CNS
A498 renal = tested on: A498 renal
NCI/ADR-RES ovarian = tested on: NCI/ADR-RES ovarian
UACC-62 melanoma = tested on: UACC-62 melanoma
TK-10 renal = tested on: TK-10 renal
CAKI-1 renal = tested on: CAKI-1 renal
HT29 colon = tested on: HT29 colon
A549 NSCLC = tested on: A549 NSCLC
HCT-116 colon = tested on: HCT-116 colon
K-562 leukemia = tested on: K-562 leukemia
SF-268 CNS = tested on: SF-268 CNS
OVCAR-3 ovarian = tested on: OVCAR-3 ovarian
KM12 colon = tested on: KM12 colon
OVCAR-8 ovarian = tested on: OVCAR-8 ovarian
SN12C renal = tested on: SN12C renal
SW-620 colon = tested on: SW-620 colon
UACC-257 melanoma = tested on: UACC-257 melanoma
NCI-H226 lung = tested on: NCI-H226 lung
OVCAR-4 ovarian = tested on: OVCAR-4 ovarian
NCI-H23 lung = tested on: NCI-H23 lung
MOLT-4 leukemia = tested on: MOLT-4 leukemia
MDA-N = tested on: MDA-N
M19-MEL melanoma = tested on: M19-MEL melanoma
DMS 273 small cell lung = tested on: DMS 273 small cell lung
HOP-18 NSCLC = tested on: HOP-18 NSCLC
DLD-1 colon = tested on: DLD-1 colon
KM20L2 colon = tested on: KM20L2 colon
DMS 114 small cell lung = tested on: DMS 114 small cell lung
LXFL 529 NSCLC = tested on: LXFL 529 NSCLC

With `COC(=O)c1ccc(CCc2cc(O)ccc2O)cc1` the TGI (IGROV1 ovarian) was 23.8 µM, the TGI (SF-539 CNS) was 19.6 µM and the TGI (T-47D breast) was 7.91 µM. The TGI (OVCAR-5 ovarian) was 50.7 µM, the TGI (SK-MEL-5 melanoma) was 25.7 µM and the TGI (SK-OV-3 ovarian) was over 78 µM. For the same molecule, the TGI (SK-MEL-28 melanoma) was 42.2 µM, the TGI (HS 578T breast) was over 39.5 µM and the TGI (COLO 205 colon) was 54.5 µM. The TGI (SF-295 CNS) was over 70.5 µM, the TGI (MDA-MB-435) was 21.7 µM and the TGI (HCC-2998 colon) was 59.6 µM. It also gave a TGI (DU-145 prostate) of over 100 µM, a TGI (BT-549 breast) of 25.6 µM and a TGI (PC-3 prostate) of 17.5 µM. The TGI (HOP-62 NSCLC) was 48.6 µM, the TGI (SR leukemia) was over 21 µM and the TGI (MCF7 breast) was over 62.2 µM. For the same molecule, the TGI (CCRF-CEM leukemia) was over 26.8 µM, the TGI (MDA-MB-231 breast) was 29.9 µM and the TGI (NCI-H522 lung) was 2.16 µM. For the same molecule, the TGI (RXF 393 renal) was 20.9 µM, the TGI (NCI-H460 lung) was over 68.4 µM and the TGI (SK-MEL-2 melanoma) was 55.6 µM. It also gave a TGI (HOP-92 NSCLC) of 26.4 µM, a TGI (SNB-19 CNS) of over 62.7 µM and a TGI (HCT-15 colon) of 27.5 µM. The TGI (RPMI-8226 leukemia) was 4.16 µM, the TGI (786-0 renal) was 18.4 µM and the TGI (HL-60(TB) leukemia) was 5.96 µM. The TGI (M14 melanoma) was 27.8 µM, the TGI (UO-31 renal) was 7.04 µM and the TGI (ACHN renal) was 37.9 µM. The TGI (SNB-75 CNS) was 21.2 µM, the TGI (EKVX NSCLC) was 32.4 µM and the TGI (LOX IMVI melanoma) was 22.7 µM. For the same molecule, the TGI (MALME-3M melanoma) was 22.5 µM, the TGI (U251 CNS) was 33.2 µM and the TGI (A498 renal) was over 96.7 µM. For the same molecule, the TGI (NCI/ADR-RES ovarian) was over 90.1 µM, the TGI (UACC-62 melanoma) was 33.9 µM and the TGI (TK-10 renal) was 45.8 µM. The TGI (CAKI-1 renal) was 12.9 µM, the TGI (HT29 colon) was over 79.9 µM and the TGI (A549 NSCLC) was over 61.3 µM. The TGI (HCT-116 colon) was 24 µM, the TGI (K-562 leukemia) was over 31.6 µM and the TGI (SF-268 CNS) was over 36.6 µM. It also gave a TGI (OVCAR-3 ovarian) of 12.1 µM, a TGI (KM12 colon) of 27.5 µM and a TGI (OVCAR-8 ovarian) of over 52.7 µM. The TGI (SN12C renal) was 29.3 µM, the TGI (SW-620 colon) was 29.7 µM and the TGI (UACC-257 melanoma) was 32.8 µM. The TGI (NCI-H226 lung) was 38.6 µM, the TGI (OVCAR-4 ovarian) was 24.4 µM and the TGI (NCI-H23 lung) was over 54.9 µM. For the same molecule, the TGI (MOLT-4 leukemia) was 15.3 µM and the TGI (MDA-N) was 20.5 µM.
Work on `COc1ccc(C[C@H](N)C(=O)N2C[C@H](CO)C[C@H](n3cnc4c(N(C)C)ncnc43)C2)cc1` yielded a TGI (IGROV1 ovarian) of over 100 µM, a TGI (SF-539 CNS) of over 100 µM and a TGI (OVCAR-5 ovarian) of over 100 µM. The TGI (SK-MEL-5 melanoma) was over 100 µM, the TGI (SK-OV-3 ovarian) was over 100 µM and the TGI (SK-MEL-28 melanoma) was over 100 µM. It also gave a TGI (COLO 205 colon) of over 100 µM, a TGI (HCC-2998 colon) of over 100 µM and a TGI (M19-MEL melanoma) of over 100 µM. The TGI (HOP-62 NSCLC) was over 100 µM, the TGI (SR leukemia) was over 100 µM and the TGI (CCRF-CEM leukemia) was over 100 µM. It also gave a TGI (NCI-H522 lung) of over 100 µM, a TGI (DMS 273 small cell lung) of over 100 µM and a TGI (RXF 393 renal) of over 100 µM. The TGI (NCI-H460 lung) was over 100 µM, the TGI (SK-MEL-2 melanoma) was over 100 µM and the TGI (HOP-92 NSCLC) was over 100 µM. For the same molecule, the TGI (SNB-19 CNS) was over 100 µM, the TGI (HCT-15 colon) was over 100 µM and the TGI (HOP-18 NSCLC) was over 100 µM. For the same molecule, the TGI (RPMI-8226 leukemia) was over 100 µM, the TGI (HL-60(TB) leukemia) was over 100 µM and the TGI (M14 melanoma) was over 100 µM. The TGI (UO-31 renal) was over 100 µM, the TGI (ACHN renal) was over 100 µM and the TGI (EKVX NSCLC) was over 100 µM. The TGI (LOX IMVI melanoma) was over 100 µM, the TGI (MALME-3M melanoma) was over 100 µM and the TGI (U251 CNS) was over 100 µM. It also gave a TGI (DLD-1 colon) of over 100 µM, a TGI (UACC-62 melanoma) of over 100 µM and a TGI (TK-10 renal) of over 100 µM. For the same molecule, the TGI (CAKI-1 renal) was over 100 µM, the TGI (HT29 colon) was over 100 µM and the TGI (A549 NSCLC) was over 100 µM. For the same molecule, the TGI (HCT-116 colon) was over 100 µM, the TGI (K-562 leukemia) was over 100 µM and the TGI (SF-268 CNS) was over 100 µM. For the same molecule, the TGI (OVCAR-3 ovarian) was over 100 µM, the TGI (KM12 colon) was over 100 µM and the TGI (OVCAR-8 ovarian) was over 100 µM. For the same molecule, the TGI (KM20L2 colon) was over 100 µM, the TGI (SN12C renal) was over 100 µM and the TGI (SW-620 colon) was over 100 µM. The TGI (DMS 114 small cell lung) was over 100 µM, the TGI (NCI-H226 lung) was over 100 µM and the TGI (OVCAR-4 ovarian) was over 100 µM. For the same molecule, the TGI (NCI-H23 lung) was over 100 µM, the TGI (MOLT-4 leukemia) was over 100 µM and the TGI (LXFL 529 NSCLC) was over 100 µM.
